Columns and labels:
hM1 [1] = molecular target: T1, hM1 (Homo sapiens, UniProt P11229); type: cell-based; conditions: for hM1 antagonist activity in words: SAR discussion of Table 1 analogs; for change in hM1 antagonist potency relative to a comparator compound: fold change in words
T1 sequence (P11229 1-460): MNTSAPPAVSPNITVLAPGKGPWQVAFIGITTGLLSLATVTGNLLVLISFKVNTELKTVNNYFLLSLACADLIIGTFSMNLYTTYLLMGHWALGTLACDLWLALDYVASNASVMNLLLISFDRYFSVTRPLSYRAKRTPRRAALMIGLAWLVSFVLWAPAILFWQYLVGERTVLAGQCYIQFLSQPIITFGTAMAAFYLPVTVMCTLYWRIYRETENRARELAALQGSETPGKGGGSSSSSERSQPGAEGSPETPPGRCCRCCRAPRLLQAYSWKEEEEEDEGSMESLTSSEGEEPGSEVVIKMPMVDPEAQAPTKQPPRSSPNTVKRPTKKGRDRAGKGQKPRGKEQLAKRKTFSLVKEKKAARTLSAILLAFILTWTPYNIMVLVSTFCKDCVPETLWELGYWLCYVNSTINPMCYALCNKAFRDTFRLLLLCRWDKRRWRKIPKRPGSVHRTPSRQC

M1 = molecular target: T2, M1 (Homo sapiens, UniProt P11229); assay: Schild analysis, calcium mobilization in M1-expressing CHO cells; type: cell-based; conditions: for Schild regression slope: antagonism of ACh, mean ± S.E.M. of three experiments in triplicate; for mode of antagonism of M1 response to ACh: calcium mobilization assay
T2 sequence (P11229 1-460): T1 sequence (P11229 1-460)

hM1 [2] = molecular target: T1, hM1; assay: [3H]NMS radioligand displacement at hM1 under equilibrium conditions; type: binding

SMILES | hM1 antagonist activity in words (hM1 [1]) | change in hM1 antagonist potency relative to a comparator compound (hM1 [1]) | further results
O=C(C(Cc1ccccc1)c1ccccc1)N1CCN(c2ccncc2)CC1 (centres unmarked) [Compound 5s] | minimal antagonist activity |  | 
CC(C)N1CCCN(C(=O)C(Cc2ccccc2)c2ccccc2)CC1 (centres unmarked) [Compound 5w] | retained moderate potency |  | 
CN1CCN(C(=O)C(Cc2ccccc2)c2ccccc2)CC1 (centres unmarked) [Compound 4] |  | roughly fourfold improvement in antagonist potency | 
COCCN1CCN(C(=O)C(Cc2ccccc2)c2ccccc2)CC1 (centres unmarked) [Compound 5r] | significant drop in potency |  | 
O=C(C(Cc1ccccc1)c1ccccc1)N1CC[C@H]2CCCN2CC1 (some centres unmarked) [Compound 5y] | retained moderate potency |  | 
CN1CCN(C(=O)[C@@](F)(Cc2ccccc2)c2ccccc2)CC1 (single isomer, unassigned) [Compound 8f] |  |  | selectivity for hM1 (hM1 [1]; against hM1-5, calcium mobilization assay): modest selectivity for hM1; Schild regression slope (M1): 1.07 ± 0.02; mode of antagonism of M1 response to ACh (M1): competitively antagonizes M1 response to ACh in a concentration-dependent manner; displacement of radiolabeled NMS (hM1 [2]): completely displace radiolabeled NMS
O=C(C(Cc1ccccc1)c1ccccc1)N1CCCNCC1 (centres unmarked) [Compound 5z] | nearly complete loss of activity |  | 
O=C(C(Cc1ccccc1)c1ccccc1)N1CCN(CC(F)(F)F)CC1 (centres unmarked) [Compound 5t] | complete loss of activity |  | 
CCN1CCN(C(=O)C(Cc2ccccc2)c2ccccc2)CC1(C)C (centres unmarked) [Compound 5g] |  | increase potency roughly sixfold | 
CCN1CCN(C(=O)C(Cc2ccccc2)c2ccccc2)CC1 (centres unmarked) [Compound 5a] |  | sixfold drop in potency | 

Second part, led by results:

hM1 antagonist activity in words (hM1 [1]) | change in hM1 antagonist potency relative to a comparator compound (hM1 [1]) | SMILES | further results
 | only a minor potency decrease | CC(C)N1CCN(C(=O)C(Cc2ccccc2)c2ccccc2)CC1 (centres unmarked) [Compound 5b] | 
only modest activity |  | C[N+]1(C)CCN(C(=O)C(Cc2ccccc2)c2ccccc2)CC1 (centres unmarked) [Compound 5h] | 
 | roughly equipotent with 4 | CCN1CCCN(C(=O)C(Cc2ccccc2)c2ccccc2)CC1 (centres unmarked) [Compound 5v] | 
 | increase potency roughly sixfold | CCN1CCN(C(=O)C(Cc2ccccc2)c2ccccc2)CC1C (centres unmarked) [Compound 5f] | 
 | only a twofold decrease in potency | CN1CCCN(C(=O)C(Cc2ccccc2)c2ccccc2)CC1 (centres unmarked) [Compound 5u] | 
moderate improvement in potency |  | CN1CCN(C(=O)[C@H](Cc2ccccc2)c2ccccc2)CC1 (single isomer, unassigned) [Compound 6] | Schild regression slope (M1): 0.97 ± 0.02; mode of antagonism of M1 response to ACh (M1): competitively antagonizes M1 response to ACh in a concentration-dependent manner; displacement of radiolabeled NMS (hM1 [2]): completely displace radiolabeled NMS
large losses in potency |  | CN(C)CCNC(=O)C(Cc1ccccc1)c1ccccc1 (centres unmarked) [Compound 5m] | 
loss of activity |  | O=C(C(Cc1ccccc1)c1ccccc1)N1CCNCC1 (centres unmarked) [Compound 5d] | 
nearly abolished antagonist activity |  | CC(C)CN1CCN(C(=O)C(Cc2ccccc2)c2ccccc2)CC1 (centres unmarked) [Compound 5c] | 
large losses in potency |  | CN(C)CCN(C)C(=O)C(Cc1ccccc1)c1ccccc1 (centres unmarked) [Compound 5n] | 
